Experimental data from ChEMBL document CHEMBL6115017, “Discovery of DFV890, a Potent Sulfonimidamide-Containing NLRP3 Inflammasome Inhibitor” (J Med Chem, 2025).
Converted amounts (≈) assume the structure as drawn. The source made the active and inactive calls. The rule behind the calls is not given here.

Tests used:
[1] = Metabolic stability in rat hepatocytes assessed as intrinsic clearance measured per 10^6 cells; type: ADME, cell-based, Hepatocyte; details: read-out: CLH
[2] = Metabolic stability in human hepatocytes assessed as intrinsic clearance measured per 10^6 cells; type: ADME, cell-based, Hepatocyte; details: read-out: CLH
[3] = Fraction unbound in human plasma; type: ADME, cell-free
[4] = Volume of distribution at steady state in Sprague-Dawley rat at 5 mg/kg, po by LC-MS analysis; type: ADME, organism-based; details: in vivo
[5] = Half life in C57 BL6 mouse at 10 mg/kg, po and 2 mg/kg, iv by LC-MS analysis; type: ADME, organism-based; details: in vivo
[6] = Half life in Cynomolgus monkey at 5 mg/kg, po and 2 mg/kg, iv by LC-MS analysis; type: ADME, organism-based, Macaca fascicularis; details: in vivo
[7] = AUC (infinity) in C57 BL6 mouse at 10 mg/kg, po by LC-MS analysis; type: ADME, organism-based; details: in vivo
[8] = Fraction unbound in C57 BL6 mouse plasma; type: ADME, cell-free
[9] = Cmax in Beagle dog at 2 mg/kg, po by LC-MS analysis; type: ADME, organism-based, Canis lupus familiaris; details: in vivo
[10] = AUC (infinity) in Cynomolgus monkey at 5 mg/kg, po by LC-MS analysis; type: ADME, organism-based, Macaca fascicularis; details: in vivo
[11] = Cytotoxicity against mouse CT26 cells measured after 72 hrs; type: toxicity, cell-based
[12] = Lipophilicity, log D of compound in potassium phosphate buffer/octanol at pH 7.4; type: physicochemical
[13] = Thermodynamic solubility in PBS at pH 1; type: physicochemical; details: read-out: Therm_solubility
[14] = Metabolic stability in mouse hepatocytes assessed as intrinsic clearance measured per 10^6 cells; type: ADME, cell-based, Hepatocyte; details: read-out: CLH
Cytochrome P450 1A2 = target: T1, Cytochrome P450 1A2 (Homo sapiens, UniProt P05177); assay: Inhibition of CYP1A2 (unknown origin); type: ADME
T1 sequence (P05177 whole entry): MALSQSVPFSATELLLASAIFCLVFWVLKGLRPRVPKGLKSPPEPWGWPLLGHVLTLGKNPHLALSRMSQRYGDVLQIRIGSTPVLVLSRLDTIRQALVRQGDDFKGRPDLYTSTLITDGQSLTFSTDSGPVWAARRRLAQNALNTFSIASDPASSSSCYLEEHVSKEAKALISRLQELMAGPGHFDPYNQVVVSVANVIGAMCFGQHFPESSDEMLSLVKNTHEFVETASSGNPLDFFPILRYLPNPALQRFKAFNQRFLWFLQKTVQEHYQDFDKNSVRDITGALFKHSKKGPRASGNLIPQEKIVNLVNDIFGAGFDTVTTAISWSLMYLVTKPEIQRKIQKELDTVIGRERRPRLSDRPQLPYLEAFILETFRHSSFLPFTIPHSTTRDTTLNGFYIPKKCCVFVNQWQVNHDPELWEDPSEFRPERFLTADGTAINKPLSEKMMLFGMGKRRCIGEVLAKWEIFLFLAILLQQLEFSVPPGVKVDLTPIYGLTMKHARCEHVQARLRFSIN

Cytochrome P450 2B6 = target: T2, Cytochrome P450 2B6 (Homo sapiens, UniProt P20813); assay: Inhibition of CYP2B6 (unknown origin); type: ADME
T2 sequence (P20813 whole entry): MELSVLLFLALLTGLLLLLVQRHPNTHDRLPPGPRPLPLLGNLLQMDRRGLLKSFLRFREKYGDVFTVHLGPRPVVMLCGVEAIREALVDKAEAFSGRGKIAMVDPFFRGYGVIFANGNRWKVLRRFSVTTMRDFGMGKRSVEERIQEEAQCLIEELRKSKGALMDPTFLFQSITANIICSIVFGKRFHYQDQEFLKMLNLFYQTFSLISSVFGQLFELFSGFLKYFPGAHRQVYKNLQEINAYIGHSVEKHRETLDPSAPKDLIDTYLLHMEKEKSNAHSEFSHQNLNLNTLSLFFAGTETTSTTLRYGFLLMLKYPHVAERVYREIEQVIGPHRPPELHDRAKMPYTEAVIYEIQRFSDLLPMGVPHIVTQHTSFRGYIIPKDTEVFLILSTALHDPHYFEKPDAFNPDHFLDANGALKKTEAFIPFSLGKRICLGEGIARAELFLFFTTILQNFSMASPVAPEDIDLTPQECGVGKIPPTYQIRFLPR

Cytochrome P450 3A5 = Cytochrome P450 3A5 (Homo sapiens, UniProt P20815); assay: Inhibition of CYP3A5 (unknown origin) by time dependent inhibition assay; type: ADME
THP-1 [15] = assay: Inhibition of mCerulean-tagged ASC pyroptosome formation in PMA-primed human THP-1 cells assessed as speak count pretreated for 1 hr followed by stimulated with gramicidin for 2 hrs by fluorescence imaging analysis; type: cell-based; details: dose 0.001-100 µM
Macrophage [16] = assay: Inhibition of AIM2 inflammasome activation in mouse iMac assessed as inhibition of poly(dA:dT) induced IL-1beta release pretreated for 1 hr followed by induced with poly(dA:dT) measured after 2 hr incubation by HTRF analysis; type: cell-based; details: time 3.0 hrs
Macrophage [17] = assay: Inhibition of pyrin inflammasome activation in immortalized NLRP3-KO mouse macrophages assessed as inhibition of TcdB-induced IL-1beta release pretreated for 1 hr followed by induced with TcdB measured after 6 hrs by HTRF analysis; type: cell-based; details: time 7.0 hrs
THP-1 [18] = assay: Inhibition of pyroptosis in PMA-primed human THP-1 cells assessed as release of lactate dehydrogenase
Mus musculus [19] = assay: In vivo inhibition of NLRP3 dependent cytokine production in po dosed LPS-challenged C57BL/6 mouse model assessed as inhibition of LPS-induced IL-6 production in blood pretreated for 1 hr followed by induced with LPS measured after 5 hrs by cytokine bead assay; type: functional, organism-based; details: time 6.0 hrs
Mus musculus [20] = assay: In vivo inhibition of NLRP3 dependent cytokine production in po dosed LPS-challenged C57BL/6 mouse model assessed as inhibition of LPS-induced TNFalpha production in blood pretreated for 1 hr followed by induced with LPS measured after 5 hrs by cytokine bead assay; type: functional, organism-based; details: time 6.0 hrs
[21] = In vivo inhibition of NLRP3 dependent cytokine production in po dosed LPS-challenged C57BL/6 mouse model assessed as inhibition of LPS-induced IL-1beta production in blood by measuring plasma compound concentration by enhanced flex bead assay; type: functional, organism-based
PXR = target: T3, PXR (Homo sapiens, UniProt O75469); assay: Activation of PXR (unknown origin) assessed as activation at 30 uM relative to control; type: toxicity; details: read-out: Activity
T3 sequence (O75469 whole entry): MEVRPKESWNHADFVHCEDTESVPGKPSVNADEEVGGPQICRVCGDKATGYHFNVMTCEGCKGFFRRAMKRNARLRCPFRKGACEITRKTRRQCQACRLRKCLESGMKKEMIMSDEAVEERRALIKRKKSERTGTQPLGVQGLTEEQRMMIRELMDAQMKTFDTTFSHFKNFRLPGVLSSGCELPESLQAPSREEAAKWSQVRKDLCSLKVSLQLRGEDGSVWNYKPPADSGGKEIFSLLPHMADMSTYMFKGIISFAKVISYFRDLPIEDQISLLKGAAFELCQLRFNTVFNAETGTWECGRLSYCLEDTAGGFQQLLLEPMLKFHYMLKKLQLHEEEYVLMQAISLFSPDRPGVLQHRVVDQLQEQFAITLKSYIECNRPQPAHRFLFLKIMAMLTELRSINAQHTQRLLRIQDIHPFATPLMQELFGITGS

cells = details: Macaca fascicularis, PBMC
Description: Antagonist activity at NLRP3 inflammasome activation in Cynomolgus monkey PBMC assessed as inhibition of LPS-stimulated IL-1beta release pretreated for 1 hr followed by induced with LPS measured after 18 hrs by HTRF analysis

Cytochrome P450 3A5, sequence (P20815 whole entry): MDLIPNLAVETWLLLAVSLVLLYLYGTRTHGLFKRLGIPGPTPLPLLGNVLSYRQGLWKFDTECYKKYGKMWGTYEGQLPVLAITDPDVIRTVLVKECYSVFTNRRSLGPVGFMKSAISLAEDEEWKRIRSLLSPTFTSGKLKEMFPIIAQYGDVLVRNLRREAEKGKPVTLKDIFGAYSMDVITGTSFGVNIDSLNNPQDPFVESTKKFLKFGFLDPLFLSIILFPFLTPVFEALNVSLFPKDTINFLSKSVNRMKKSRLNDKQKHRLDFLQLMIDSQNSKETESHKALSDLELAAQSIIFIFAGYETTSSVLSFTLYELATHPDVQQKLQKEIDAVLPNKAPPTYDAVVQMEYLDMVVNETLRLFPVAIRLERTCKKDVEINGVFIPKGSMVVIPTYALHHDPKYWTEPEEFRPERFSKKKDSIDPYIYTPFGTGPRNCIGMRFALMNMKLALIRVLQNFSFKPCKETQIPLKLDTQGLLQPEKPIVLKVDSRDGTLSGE

In the case of `CC(C)(O)c1ncc([S@](N)(=O)=NC(=O)Nc2c3c(cc4c2CCC4)CCC3)s1`, the hepatocyte CLint [1] is reported as 7.5 µL/min/1e6 cells, the hepatocyte CLint [2] is reported as 8.4 µL/min/1e6 cells and the fraction unbound [3] is reported as 0.006. It also gave a Vdss [4] of 0.188 L/kg, a half-life [5] of 3.9 h and a half-life [6] of 5.2 h. The AUC(0-inf) [7] was 261 µg·h/mL, the fraction unbound [8] was 0.015 and the Cmax [9] was 6560 ng/mL. The AUC(0-inf) [10] was 331 µg·h/mL, the EC50 at 72 h [11] was greater than 100000 nM and the logD [12] was 2.37. The solubility thermodynamic [13] was 7.4 µg/mL (≈ 17.6 µM), the hepatocyte CLint [14] was less than 1.9 µL/min/1e6 cells and the IC50 (Cytochrome P450 1A2) was greater than 60000 nM. The IC50 (Cytochrome P450 2B6) was greater than 60000 nM, the TDI (Cytochrome P450 3A5) was “Not_active” and the inhibition (THP-1 [15]) was “Dose-dependent-effect”. The Activity (Macrophage [16]) was “inactive”, the Activity (Macrophage [17]) was “inactive” and the IC50 (THP-1 [18]) was 27 nM. For the same compound, the inhibition (Mus musculus [19]) was “Dose-dependent-effect”, the inhibition (Mus musculus [20]) was “Dose-dependent-effect” and the IC50 ([21]; Mus musculus, C57BL/6) was 0.416 µg/mL. The IC90 ([21]; route po) was 3.742 µg/mL, the activity at 30 µM (PXR) was 19% and the IC50 (cells) was 6.1 nM.
